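Interpolation was linear, between the two tested concentrations surrounding the appropriate level; five concentrations were tested over 48 hours in 96-well plates. GI50 is the concentration that inhibits growth by half.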 Active and inactive are the calls of the source. Rule as the data show it: active = GI50 up to about 1.1 µM and inactive = higher.
Key:
Experiment in all cases: growth of human tumour cells (NCI), 48 h
CAKI-1 = tested on: CAKI-1
HOP-62 = tested on: HOP-62
NCI-H522 = tested on: NCI-H522
HT-29 = tested on: HT-29
K562 = tested on: K562
HL-60 = tested on: HL-60
UO-31 = tested on: UO-31
NCI-H226 = tested on: NCI-H226
LOX IMVI = tested on: LOX IMVI
SNB-75 = tested on: SNB-75
U-251 = tested on: U-251
PC-3 = tested on: PC-3
HCC 2998 = tested on: HCC 2998
OVCAR-3 = tested on: OVCAR-3
OVCAR-5 = tested on: OVCAR-5
BT-549 = tested on: BT-549
786-0 = tested on: 786-0
MOLT-4 = tested on: MOLT-4
NCI/ADR-RES = tested on: NCI/ADR-RES
A498 = tested on: A498

SMILES | GI50 (CAKI-1) | GI50 (HOP-62) | GI50 (NCI-H522) | GI50 (HT-29) | GI50 (K562) | GI50 (HL-60) | GI50 (UO-31) | GI50 (NCI-H226) | GI50 (LOX IMVI) | GI50 (SNB-75) | GI50 (U-251) | GI50 (PC-3) | GI50 (HCC 2998) | GI50 (OVCAR-3) | GI50 (OVCAR-5) | GI50 (BT-549) | GI50 (786-0) | GI50 (MOLT-4) | GI50 (NCI/ADR-RES) | GI50 (A498)
CCCCNC1CCC2(SCCS2)c2[nH]c3ccccc3c21 (stereo not given) | 2.04 µM (inactive) | > 53.8 µM (inactive) | 8.61 µM (inactive) | 25.2 µM (inactive) | 10.1 µM (inactive) | 3.16 µM (inactive) | 20.4 µM (inactive) | 42 µM (inactive) | 2.64 µM (inactive) | 43.1 µM (inactive) | 43.1 µM (inactive) | 7.46 µM (inactive) | 18.9 µM (inactive) | 8.41 µM (inactive) | 59.7 µM (inactive) | 23.4 µM (inactive) | 4.53 µM (inactive) | 3.97 µM (inactive) | 21.6 µM (inactive) | 20.8 µM (inactive)
COc1cc2c(SCCN(C)C)nc3ccccc3c2c2ccccc12 | 1.88 µM (inactive) | 1.79 µM (inactive) | 1.68 µM (inactive) | 2.64 µM (inactive) | 1.72 µM (inactive) | 0.193 µM (active) | 2.26 µM (inactive) | 1.94 µM (inactive) | 1.69 µM (inactive) | 2.51 µM (inactive) | 1.87 µM (inactive) | 2.22 µM (inactive) | 1.47 µM (inactive) | 2.34 µM (inactive) | 1.64 µM (inactive) | 5.7 µM (inactive) | 1.93 µM (inactive) | 1.54 µM (inactive) | 5.38 µM (inactive) | 10.7 µM (inactive)
CCN(CC)CCNc1nc(N)c(C#N)c(C#N)c1C#N | > 10 µM (inactive) | > 10 µM (inactive) | > 10 µM (inactive) | > 10 µM (inactive) | > 10 µM (inactive) | > 10 µM (inactive) | > 10 µM (inactive) | > 10 µM (inactive) | > 10 µM (inactive) | > 10 µM (inactive) | > 10 µM (inactive) | > 10 µM (inactive) | > 10 µM (inactive) | > 10 µM (inactive) | > 10 µM (inactive) | > 10 µM (inactive) | > 10 µM (inactive) | > 10 µM (inactive) | > 10 µM (inactive) | > 10 µM (inactive)
COC(=O)c1ccc2n1C1CC3CC(CC2C3)C1 | > 100 µM (inactive) | > 100 µM (inactive) | > 100 µM (inactive) | 31.5 µM (inactive) | 51.2 µM (inactive) | 15.3 µM (inactive) | > 100 µM (inactive) | > 100 µM (inactive) | > 100 µM (inactive) | > 100 µM (inactive) | > 100 µM (inactive) | 40 µM (inactive) | 91.2 µM (inactive) | > 100 µM (inactive) | > 100 µM (inactive) | > 100 µM (inactive) | > 100 µM (inactive) | 57.5 µM (inactive) | > 100 µM (inactive) | > 100 µM (inactive)
COc1cc(C2c3cc4c(cc3OC(N3CCOCC3)C2C)OCO4)cc(OC)c1O (stereo not given) | 11.5 µM (inactive) | 9.57 µM (inactive) | 2.8 µM (inactive) | 4.04 µM (inactive) | 3.38 µM (inactive) | 3.52 µM (inactive) | 14.8 µM (inactive) | 22.6 µM (inactive) | 6.7 µM (inactive) | 1.79 µM (inactive) | 7.52 µM (inactive) | 6.19 µM (inactive) | 10.5 µM (inactive) | 5.42 µM (inactive) | 46.6 µM (inactive) | 7.43 µM (inactive) | 10.1 µM (inactive) | 3.18 µM (inactive) | 3.35 µM (inactive) | 15.1 µM (inactive)
O=C1OC(C2Cc3ccc4c(c3C2=O)CCCC4)c2ccccc21 (stereo not given) | 69.3 µM (inactive) | 74.1 µM (inactive) | 48.4 µM (inactive) | 36.6 µM (inactive) | 21.8 µM (inactive) | 71.3 µM (inactive) | 50 µM (inactive) | 20.6 µM (inactive) | 25.5 µM (inactive) | 65.6 µM (inactive) | 39.6 µM (inactive) | 26.4 µM (inactive) | 30.8 µM (inactive) | 34.3 µM (inactive) | > 100 µM (inactive) | 54.8 µM (inactive) | 50.8 µM (inactive) | 16.8 µM (inactive) | 46 µM (inactive) | 16.8 µM (inactive)
NCc1ccccc1.O=C(O)NCc1ccccc1 | 42.7 µM (inactive) | 38 µM (inactive) | 21.8 µM (inactive) | 27.7 µM (inactive) | 24.3 µM (inactive) | 26.7 µM (inactive) | 24.3 µM (inactive) | 30.1 µM (inactive) | 30.3 µM (inactive) | 27.4 µM (inactive) | 26.9 µM (inactive) | 20.8 µM (inactive) | 22.5 µM (inactive) | 31.4 µM (inactive) | 30.1 µM (inactive) | 29.5 µM (inactive) | 36.3 µM (inactive) | 18.8 µM (inactive) | 26.9 µM (inactive) | 29 µM (inactive)
COc1cc(/C=C/C(=O)CC(=O)/C=C/c2cc(C)c(O)c(OC)c2)cc(C)c1O | > 100 µM (inactive) | > 100 µM (inactive) | > 100 µM (inactive) | > 100 µM (inactive) | > 100 µM (inactive) | 38.9 µM (inactive) | > 100 µM (inactive) | > 100 µM (inactive) | > 100 µM (inactive) | > 100 µM (inactive) | > 100 µM (inactive) | > 100 µM (inactive) | > 100 µM (inactive) | 83.4 µM (inactive) | > 100 µM (inactive) | > 100 µM (inactive) | > 100 µM (inactive) | > 100 µM (inactive) | > 100 µM (inactive) | > 100 µM (inactive)
Cc1cc2c(cc1C)OC(=O)CC2 | > 100 µM (inactive) | > 100 µM (inactive) | > 100 µM (inactive) | > 100 µM (inactive) | > 100 µM (inactive) | > 100 µM (inactive) | > 100 µM (inactive) | > 100 µM (inactive) | > 100 µM (inactive) | > 100 µM (inactive) | > 100 µM (inactive) | > 100 µM (inactive) | > 100 µM (inactive) | > 100 µM (inactive) | > 100 µM (inactive) | > 100 µM (inactive) | > 100 µM (inactive) | > 100 µM (inactive) | > 100 µM (inactive) | > 100 µM (inactive)
